Results published in ChEMBL document CHEMBL3885861, “Open TG-GATES”.

Species: Rattus norvegicus
Experiment: Open TG-GATES - Regimen: Single
Assay type: toxicity, organism-based, Sprague-Dawley
Design: regimen Single, gender Male, age 6 weeks
Conditions: in vivo, po, route gavage; for APTT / Bas / Eos / Fbg / Ht / MCH / MCHC / MCV / Mono / PT / Plat / RBC / Ret / WBC: tissue Blood; for KIDNEY_L / KIDNEY_R / KIDNEY_TOTAL: tissue Kidney; for LIVER: tissue Liver; for ALP / AST / BUN / CRE / Ca / Cl / DBIL / GLC / IP / K / LDH / Na / PL / RALB / TBIL / TC / TG / TP / gamma-GTP: tissue Plasma
[1] = 0 mg/kg, 3 h, dose level Control
[2] = 0 mg/kg, 6 h, dose level Control
[3] = 0 mg/kg, 9 h, dose level Control
[4] = 0 mg/kg, 24 h, dose level Control

## CC(=O)Nc1nnc(S(N)(=O)=O)s1 [ACETAZOLAMIDE]
[1]
  TERMINAL_BW: 214.4 g
  APTT: 22 s
  Bas: 0%
  Eos: 0.8%
  Fbg: 309 mg/dL
  Ht: 39.4%
  MCH: 21.3 pg
  MCHC: 32.9%
  MCV: 64.8 fL
  Mono: 2.4%
  PT: 16.5 s
  Plat: 118.6 x10_4/uL
  RBC: 608.6 x10_4/ul
  Ret: 8.8%
  WBC: 89.5 x10_2/uL
  KIDNEY_L: 0.9 g
  KIDNEY_R: 0.9 g
  KIDNEY_TOTAL: 1.9 g
  LIVER: 9.8 g
  ALP: 1586.4 IU/L
  AST: 80.2 IU/L
  BUN: 12 mg/dL
  CRE: 0.2 mg/dL
  Ca: 11.1 mg/dL
  Cl: 106.4 meq/L
  DBIL: 0 mg/dL
  GLC: 187.4 mg/dL
  IP: 8.2 mg/dL
  K: 4 meq/L
  LDH: 235.8 IU/L
  Na: 143 meq/L
  PL: 137.6 mg/dL
  RALB: 3.1 g/dL
  TBIL: 0.018 mg/dL
  TC: 78 mg/dL
  TG: 59.8 mg/dL
  TP: 5.4 g/dL
  gamma-GTP: 1 IU/L
[2]
  TERMINAL_BW: 207.4 g
  APTT: 22.1 s
  Bas: 0%
  Eos: 0.8%
  Fbg: 320.2 mg/dL
  Ht: 39.1%
  MCH: 20.8 pg
  MCV: 62.8 fL
  Mono: 2%
  PT: 16.5 s
  Plat: 131.7 x10_4/uL
  RBC: 622.4 x10_4/ul
  Ret: 8.3%
  WBC: 79.7 x10_2/uL
  KIDNEY_L: 1 g
  KIDNEY_R: 0.9 g
  KIDNEY_TOTAL: 1.9 g
  LIVER: 9 g
  ALP: 1340.2 IU/L
  AST: 63.4 IU/L
  CRE: 0.1 mg/dL
  Ca: 11 mg/dL
  Cl: 105 meq/L
  DBIL: 0 mg/dL
  GLC: 186.6 mg/dL
  IP: 9.4 mg/dL
  K: 4.3 meq/L
  LDH: 183.6 IU/L
  Na: 141 meq/L
  PL: 127.8 mg/dL
  RALB: 3 g/dL
  TBIL: 0.024 mg/dL
  TC: 78 mg/dL
  TG: 48.2 mg/dL
  TP: 5.3 g/dL
  gamma-GTP: 1.2 IU/L
[3]
  TERMINAL_BW: 212.2 g
  APTT: 21.9 s
  Bas: 0%
  Eos: 0.6%
  Fbg: 293 mg/dL
  Ht: 39.7%
  MCH: 20.8 pg
  MCHC: 32.3%
  MCV: 64.3 fL
  Mono: 2.2%
  PT: 16.8 s
  Plat: 115.3 x10_4/uL
  RBC: 616.6 x10_4/ul
  Ret: 8.4%
  WBC: 84.8 x10_2/uL
  KIDNEY_L: 1 g
  KIDNEY_R: 1 g
  KIDNEY_TOTAL: 1.9 g
  LIVER: 8.8 g
  ALP: 1423.8 IU/L
  AST: 70.8 IU/L
  BUN: 11 mg/dL
  CRE: 0.1 mg/dL
  Ca: 10.9 mg/dL
  Cl: 104.8 meq/L
  DBIL: 0 mg/dL
  GLC: 193 mg/dL
  IP: 9.3 mg/dL
  K: 4.1 meq/L
  LDH: 163.2 IU/L
  Na: 141.6 meq/L
  PL: 113.2 mg/dL
  RALB: 3.1 g/dL
  TBIL: 0.024 mg/dL
  TC: 70.2 mg/dL
  TG: 49.8 mg/dL
  TP: 5.4 g/dL
  gamma-GTP: 1.2 IU/L
[4]
  TERMINAL_BW: 228.8 g
  APTT: 20.3 s
  Bas: 0%
  Eos: 0.6%
  Fbg: 288.8 mg/dL
  Ht: 38.7%
  MCH: 20.8 pg
  MCHC: 33.2%
  MCV: 62.9 fL
  Mono: 1.6%
  PT: 16.1 s
  Plat: 110.7 x10_4/uL
  RBC: 616.2 x10_4/ul
  Ret: 7.9%
  WBC: 66.7 x10_2/uL
  KIDNEY_L: 1 g
  KIDNEY_R: 1 g
  KIDNEY_TOTAL: 2 g
  LIVER: 10.7 g
  ALP: 1945.2 IU/L
  AST: 80.8 IU/L
  BUN: 15.8 mg/dL
  CRE: 0.1 mg/dL
  Ca: 10.7 mg/dL
  Cl: 105.8 meq/L
  DBIL: 0 mg/dL
  GLC: 201.2 mg/dL
  IP: 7.7 mg/dL
  K: 4.1 meq/L
  LDH: 185.8 IU/L
  Na: 141.6 meq/L
  PL: 137.4 mg/dL
  RALB: 3 g/dL
  TBIL: 0.004 mg/dL
  TC: 71.8 mg/dL
  TG: 97 mg/dL
  TP: 5.4 g/dL
  gamma-GTP: 2.2 IU/L
60 mg/kg, 3 h, dose level Low
  TERMINAL_BW: 208.4 g
  APTT: 22.2 s
  Bas: 0%
  Eos: 1%
  Fbg: 313.4 mg/dL
  Ht: 40.8%
  MCH: 21.4 pg
  MCHC: 32.1%
  MCV: 66.9 fL
  Mono: 1.6%
  PT: 16.8 s
  Plat: 125.7 x10_4/uL
  RBC: 610.4 x10_4/ul
  Ret: 8.6%
  WBC: 69.8 x10_2/uL
  KIDNEY_L: 0.9 g
  KIDNEY_R: 1 g
  KIDNEY_TOTAL: 1.9 g
  LIVER: 9.5 g
  ALP: 1527.8 IU/L
  AST: 75.8 IU/L
  BUN: 12.2 mg/dL
  CRE: 0.2 mg/dL
  Ca: 11.1 mg/dL
  Cl: 111.6 meq/L
  DBIL: 0 mg/dL
  GLC: 184.6 mg/dL
  IP: 9.6 mg/dL
  K: 3.9 meq/L
  LDH: 212.8 IU/L
  Na: 141.4 meq/L
  PL: 142.2 mg/dL
  RALB: 3.4 g/dL
  TBIL: 0.018 mg/dL
  TC: 88 mg/dL
  TG: 28.2 mg/dL
  TP: 5.9 g/dL
  gamma-GTP: 1.4 IU/L
60 mg/kg, 6 h, dose level Low
  TERMINAL_BW: 202.8 g
  APTT: 23 s
  Bas: 0%
  Eos: 1%
  Fbg: 336.6 mg/dL
  Ht: 42.5%
  MCH: 20.9 pg
  MCV: 65.6 fL
  Mono: 3%
  PT: 16.8 s
  Plat: 120.9 x10_4/uL
  RBC: 648 x10_4/ul
  Ret: 8.7%
  WBC: 98.5 x10_2/uL
  KIDNEY_L: 0.9 g
  KIDNEY_R: 0.9 g
  KIDNEY_TOTAL: 1.8 g
  LIVER: 8.4 g
  ALP: 1445.8 IU/L
  AST: 72.8 IU/L
  BUN: 11.8 mg/dL
  CRE: 0.2 mg/dL
  Ca: 11 mg/dL
  Cl: 113 meq/L
  DBIL: 0 mg/dL
  GLC: 187.4 mg/dL
  IP: 9.6 mg/dL
  K: 4.2 meq/L
  LDH: 177.4 IU/L
  Na: 139.4 meq/L
  PL: 138.2 mg/dL
  RALB: 3.3 g/dL
  TBIL: 0.024 mg/dL
  TC: 83 mg/dL
  TG: 27.2 mg/dL
  TP: 5.9 g/dL
  gamma-GTP: 1 IU/L
60 mg/kg, 9 h, dose level Low
  TERMINAL_BW: 205.8 g
  APTT: 21.4 s
  Bas: 0%
  Eos: 0.8%
  Fbg: 337.8 mg/dL
  Ht: 41.7%
  MCH: 20.5 pg
  MCHC: 31.4%
  MCV: 65.2 fL
  Mono: 1.8%
  PT: 16.7 s
  Plat: 125.8 x10_4/uL
  RBC: 640.2 x10_4/ul
  Ret: 8.7%
  WBC: 76.9 x10_2/uL
  KIDNEY_L: 0.9 g
  KIDNEY_R: 0.9 g
  KIDNEY_TOTAL: 1.8 g
  LIVER: 8.5 g
  ALP: 1425.8 IU/L
  AST: 59.8 IU/L
  BUN: 13.8 mg/dL
  CRE: 0.2 mg/dL
  Ca: 11.1 mg/dL
  Cl: 112.8 meq/L
  DBIL: 0 mg/dL
  GLC: 190.8 mg/dL
  IP: 9.5 mg/dL
  K: 4 meq/L
  LDH: 158.2 IU/L
  Na: 140 meq/L
  PL: 133.4 mg/dL
  RALB: 3.3 g/dL
  TBIL: 0.026 mg/dL
  TC: 81.8 mg/dL
  TG: 35.4 mg/dL
  TP: 5.9 g/dL
  gamma-GTP: 1 IU/L
60 mg/kg, 24 h, dose level Low
  TERMINAL_BW: 217.9 g
  APTT: 20.2 s
  Bas: 0%
  Eos: 0.8%
  Fbg: 303.8 mg/dL
  Ht: 40.5%
  MCH: 20.9 pg
  MCHC: 33.3%
  MCV: 62.6 fL
  Mono: 1.6%
  PT: 16.7 s
  Plat: 117.7 x10_4/uL
  RBC: 647 x10_4/ul
  Ret: 7.7%
  WBC: 86.4 x10_2/uL
  KIDNEY_L: 0.9 g
  KIDNEY_R: 1 g
  KIDNEY_TOTAL: 1.9 g
  LIVER: 9.8 g
  ALP: 1708.2 IU/L
  AST: 61.2 IU/L
  BUN: 20 mg/dL
  CRE: 0.1 mg/dL
  Ca: 10.9 mg/dL
  Cl: 106.8 meq/L
  DBIL: 0 mg/dL
  GLC: 179.4 mg/dL
  IP: 7.5 mg/dL
  K: 4 meq/L
  LDH: 156.8 IU/L
  Na: 142.6 meq/L
  PL: 136.2 mg/dL
  RALB: 3.2 g/dL
  TBIL: 0.01 mg/dL
  TC: 73.2 mg/dL
  TG: 109.6 mg/dL
